BigSolDB 2.1

CC(=O)N1CCN(c2ccc(OC[C@@H]3CO[C@@](Cn4ccnc4)(c4ccc(Cl)cc4Cl)O3)cc2)CC1 (racemic)
solubility (mole fraction)
Conditions	293.2 K	298.2 K	303.2 K	308.2 K	313.2 K
in NMP	0.0212	0.0242	0.0271	0.0301	0.0333
in ethanol	0.00235	0.00299	0.00361	0.00438	0.00527
